Key:
[1] = target: 5-hydroxytryptamine receptor 4 (Cavia porcellus) (UniProt O70528); assay: Tested for affinity towards 5-hydroxytryptamine 4 receptor in guinea pig distal colon preparation; format: tissue-based
[2] = target: 5-hydroxytryptamine receptor 4 (Rattus norvegicus) (UniProt Q62758); assay: Tested for affinity towards 5-hydroxytryptamine 4 receptor in relaxation of rat oesophagus
[3] = target: 5-hydroxytryptamine receptor 4 (Mus musculus) (UniProt P97288); assay: Tested for 5-hydroxytryptamine 4 binding affinity against cisapride
Sequence of 5-hydroxytryptamine receptor 4 (Mus musculus) (P97288 whole entry, looked up): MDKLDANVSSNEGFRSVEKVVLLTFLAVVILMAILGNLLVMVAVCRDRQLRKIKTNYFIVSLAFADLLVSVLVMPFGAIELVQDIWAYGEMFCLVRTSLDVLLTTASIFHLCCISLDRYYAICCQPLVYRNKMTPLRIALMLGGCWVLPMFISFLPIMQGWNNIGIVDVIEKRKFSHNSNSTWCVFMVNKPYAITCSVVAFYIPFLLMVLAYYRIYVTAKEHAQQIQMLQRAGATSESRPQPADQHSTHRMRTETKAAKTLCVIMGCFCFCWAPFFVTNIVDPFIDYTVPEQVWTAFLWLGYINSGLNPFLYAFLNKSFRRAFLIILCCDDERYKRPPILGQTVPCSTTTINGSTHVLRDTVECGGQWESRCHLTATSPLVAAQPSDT

[4] = target: 5-hydroxytryptamine receptor 4 (Mus musculus) (UniProt P97288); assay: Tested for 5-hydroxytryptamine 4 binding affinity against renzapride
[5] = target: 5-hydroxytryptamine receptor 4 (Mus musculus) (UniProt P97288); assay: Tested for 5-hydroxytryptamine 4 binding affinity against zacopride
[6] = target: T1, 5-hydroxytryptamine receptor 4 (Homo sapiens, UniProt Q13639); assay: (§1) Tested for 5-hydroxytryptamine 4 receptor antagonist activity; format: functional
T1 sequence (Q13639 whole entry): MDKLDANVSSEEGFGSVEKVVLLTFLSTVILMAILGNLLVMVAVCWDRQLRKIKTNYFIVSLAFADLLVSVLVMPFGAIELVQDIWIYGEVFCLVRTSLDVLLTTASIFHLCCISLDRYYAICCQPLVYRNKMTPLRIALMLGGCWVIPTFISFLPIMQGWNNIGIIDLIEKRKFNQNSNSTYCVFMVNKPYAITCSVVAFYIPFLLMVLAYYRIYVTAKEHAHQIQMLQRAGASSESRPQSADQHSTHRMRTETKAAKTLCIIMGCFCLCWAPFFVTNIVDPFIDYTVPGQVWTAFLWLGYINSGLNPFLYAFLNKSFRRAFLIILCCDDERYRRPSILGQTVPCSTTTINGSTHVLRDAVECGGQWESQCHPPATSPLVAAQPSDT

[7] = target: T1, 5-hydroxytryptamine receptor 4; assay: as §1; format: functional; remark: listed apart in the source
[8] = target: T2, 5-hydroxytryptamine receptor 3A (Homo sapiens, UniProt P46098); assay: Tested for 5-hydroxytryptamine 3 receptor agonist activity; format: functional
T2 sequence (P46098 whole entry): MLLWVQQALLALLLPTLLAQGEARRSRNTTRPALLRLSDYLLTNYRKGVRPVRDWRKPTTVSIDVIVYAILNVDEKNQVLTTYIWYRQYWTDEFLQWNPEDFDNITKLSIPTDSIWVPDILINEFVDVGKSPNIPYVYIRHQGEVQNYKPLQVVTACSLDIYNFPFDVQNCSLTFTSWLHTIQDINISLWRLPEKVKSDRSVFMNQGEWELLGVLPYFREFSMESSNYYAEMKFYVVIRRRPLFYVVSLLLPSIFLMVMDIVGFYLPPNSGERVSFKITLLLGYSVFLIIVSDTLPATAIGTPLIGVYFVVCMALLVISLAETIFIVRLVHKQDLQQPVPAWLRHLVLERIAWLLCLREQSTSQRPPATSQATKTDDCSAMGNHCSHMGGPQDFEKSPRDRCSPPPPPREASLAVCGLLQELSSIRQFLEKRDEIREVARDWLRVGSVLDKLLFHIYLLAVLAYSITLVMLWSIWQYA

[9] = Tested for potency against electrically stimulated myenteric plexus; format: functional
[10] = target: Serotonin 3 (5-HT3) receptor; assay: (§2) Compound was tested for 5-hydroxytryptamine 3 receptor binding affinity; format: protein-complex assay
[11] = target: 5-hydroxytryptamine receptor 4 (Rattus norvegicus, UniProt Q62758); assay: Efficient 5-hydroxytryptamine 4 agonist in the rat tunica muscularis mucosae; format: functional, tissue-based, Muscularis mucosa
Sequence of 5-hydroxytryptamine receptor 4 (Rattus norvegicus, UniProt Q62758) (Q62758 whole entry): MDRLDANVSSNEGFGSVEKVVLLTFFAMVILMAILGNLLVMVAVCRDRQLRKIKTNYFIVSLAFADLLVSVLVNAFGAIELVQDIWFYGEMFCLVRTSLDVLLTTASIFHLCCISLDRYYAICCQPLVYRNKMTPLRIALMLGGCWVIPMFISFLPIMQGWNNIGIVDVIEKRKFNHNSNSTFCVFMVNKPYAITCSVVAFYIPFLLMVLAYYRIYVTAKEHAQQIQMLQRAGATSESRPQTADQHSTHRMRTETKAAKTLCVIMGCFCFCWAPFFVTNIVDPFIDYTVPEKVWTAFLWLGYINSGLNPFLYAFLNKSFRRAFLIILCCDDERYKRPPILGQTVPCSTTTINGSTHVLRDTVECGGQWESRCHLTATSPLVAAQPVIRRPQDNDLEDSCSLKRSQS

[12] = target: T2, 5-hydroxytryptamine receptor 3A; assay: as §2
Rattus norvegicus = species: Rattus norvegicus; assay: Tested for affinity towards 5-HT receptor in relaxation of carbachol contracted rat oesophaga muscularis; format: functional
Cavia porcellus = species: Cavia porcellus; assay: Tested for inhibitory activity against 5-HT induced contractions of guinea pig ileum; format: functional
[13] = target: 5-hydroxytryptamine receptor 4 (Cavia porcellus, UniProt O70528); assay: Tested for affinity against 5-hydroxytryptamine 4 receptor in the myenteric plexus of the guinea pig ileum.; format: tissue-based
Sequence of 5-hydroxytryptamine receptor 4 (Cavia porcellus, UniProt O70528) (O70528 whole entry): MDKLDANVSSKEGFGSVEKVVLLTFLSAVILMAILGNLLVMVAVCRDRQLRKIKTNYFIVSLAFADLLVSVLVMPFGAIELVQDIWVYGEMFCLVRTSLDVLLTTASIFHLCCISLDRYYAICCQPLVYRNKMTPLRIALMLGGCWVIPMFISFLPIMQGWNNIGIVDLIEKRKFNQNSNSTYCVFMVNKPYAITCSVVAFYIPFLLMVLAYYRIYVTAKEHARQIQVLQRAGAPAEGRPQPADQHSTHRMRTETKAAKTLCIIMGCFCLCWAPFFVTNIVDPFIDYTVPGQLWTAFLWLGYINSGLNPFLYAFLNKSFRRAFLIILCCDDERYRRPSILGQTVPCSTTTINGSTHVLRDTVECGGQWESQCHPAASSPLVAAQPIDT

[14] = target: T1, 5-hydroxytryptamine receptor 4; assay: as §1; format: functional; remark: listed apart in the source
[15] = target: T1, 5-hydroxytryptamine receptor 4; assay: Tested for affinity towards 5-hydroxytryptamine 4 receptor.
[16] = target: 5-hydroxytryptamine receptor 4 (Cavia porcellus) (UniProt O70528); assay: Tested for affinity towards 5-hydroxytryptamine 4 receptor in electrically stimulated longitudinal muscle preparation of guinea pig ileum; format: tissue-based
[17] = target: Serotonin 3 (5-HT3) receptor; assay: Tested for 5-hydroxytryptamine 3 receptor antagonist activity; format: functional

Sequence of 5-hydroxytryptamine receptor 4 (Cavia porcellus) (O70528 whole entry): as above
Sequence of 5-hydroxytryptamine receptor 4 (Rattus norvegicus) (Q62758 whole entry): as the sequence (Q62758 whole entry) above

## CCCCN1CCC(CNC(=O)c2c3n(c4ccccc24)CCCO3)CC1
[1]
  Activity: 9.2 pIC50

## COc1cc(N)c(Cl)cc1C(=O)CCC1CCN(CCNS(C)(=O)=O)CC1
[2]
  Activity: 8.6 pEC50

## COc1cc(N)c(Cl)cc1C(=O)NC1CC2CCC(C1)N2C (centres undefined)
[3]
  EC50: 72.4 nM
[4]
  EC50: 126 nM
[5]
  EC50: 1120 nM

## CC(C)n1c(=O)n(C(=O)NCCN2CCN(C)CC2)c2ccccc21
[6]
  Ki: 91.9 nM
[7]
  Intrinsic activity: 0.94

## Nc1cc2c(cc1Cl)C(=O)NC1CCN(CCOCCO2)CC1
[8]
  Ki: 53.2 nM
[9]
  EC50: 69 nM

## COc1cc(N)c(Cl)cc1C(=O)NC1CCN(CCCOc2ccc(F)cc2)CC1OC (centres undefined) [CISAPRIDE]
[10]
  Ki: 152 nM

## COc1cc(N)c(Cl)cc1C(=O)NC1CCN2C(C)CCCC2C1 (centres undefined) [BRL-20627]
[3]
  EC50: 72.4 nM
[4]
  EC50: 126 nM
[5]
  EC50: 1120 nM

## CCCCN1CCC(CCC(=O)c2cc(Cl)c(N)cc2OC)CC1
[2]
  Activity: 8.4 pEC50

## COc1cc(N)c(Cl)cc1C(=O)NC[C@@H]1CCN2CCC[C@@H]12
[11]
  EC50: 23.7 nM
[12]
  Ki: 152 nM

## CCCCN1CCC(COC(=O)c2c3n(c4ccccc24)CCCO3)CC1
[1]
  Activity: 10.6 pIC50

## COc1cc(COc2cc(N)c(Cl)cc2C(=O)CCC2CCN(CCNS(C)(=O)=O)CC2)cc(OC)c1
Rattus norvegicus
  Activity: 9.2 pKi

## CCCCCN(C)C(=N)N/N=C/c1c[nH]c2c(C)cc(OC)cc12
Cavia porcellus
  Activity: 8.4 pA2

## CCOc1cc(N)c(Cl)cc1C(=O)NCC1CN(Cc2ccc(F)cc2)CCO1 (centres undefined) [MOSAPRIDE]
[13]
  Ki: 84 nM

## O=C(NCC1CCN2CCCCC2C1)c1c2n(c3ccccc13)CCCO2 (centres undefined)
[1]
  Activity: 9.5 pIC50

## COc1cc(COc2cc(N)c(Cl)cc2C(=O)CCCCN2CCCCC2)cc(OC)c1
Rattus norvegicus
  Activity: 8.5 pKi

## CC(C)N1CCN(CCNC(=O)n2c(=O)n(C3CC3)c3ccccc32)CC1
[6]
  Ki: 6.7 nM
[14]
  Ki: 16.6 nM

## CCCCN1CCC(CNC(=O)c2cc(Cl)c(N)c3c2OCCO3)CC1
[15]
  Activity: 9 pKa

## N=C(N)N/N=C/c1c[nH]c2ccc(O)cc12
[16]
  Activity: 8.8 pD2

## CCCCCNC(=N)N/N=C/c1c[nH]c2ccc(OC)cc12
[16]
  Activity: 6.9 pD2

## CNC1(CNC(=O)c2cc(Cl)c(N)cc2OC)CCCC1
[17]
  Ki: 9 nM

## CCCCCNC(=N)N/N=C/c1c[nH]c2ccc(O)cc12
[16]
  Activity: 9.3 pD2

Source: ChEMBL document CHEMBL1144908, “5-HT4 receptor ligands: applications and new prospects” (J Med Chem, 2003)
